Results from paper PMC7529893, “Structural basis for substrate recognition and chemical inhibition of oncogenic MAGE ubiquitin ligases” (Nature Communications, 2020).
Entries after “also recorded” stand apart in the source; their conditions may differ.

Assays:
[1] = test system: MAGE-A11-knockout DAOY cells or those reconstituted with MAGE-A11; test: Cell viability, alamarBlue, DAOY cells; type: cell-based
Method: (§1) To assess cell viability after SJ521054 treatment, 1 × 10^4 cells/ml were treated with SJ521054 (0–40 μM) and incubated for 24 h prior to changing the media and adding alamarBlue (Thermo Fisher Scientific) and incubating for 4 h at 37 °C. Plates were read by measuring the fluorescence with excitation wavelength at 540 nm and emission wavelength at 590 nm on an Enspire plate reader.

[2] = test system: HEK293FT cells stably expressing FLAG-vector or FLAG-MAGE-A11; test: Cell viability, alamarBlue, HEK293FT cells; type: cell-based; settings: HEK293FT FLAG-MAGE-A11 against FLAG-vector, 24 h; listed as SJ521054
Method: as §1

[3] = test system: PCF11 degradation by MAGE-A11 in HEK293FT cells; test: PCF11 degradation by MAGE-A11, immunoblot in HEK293FT cells; type: cell-based
Method: HEK293FT, HeLa and DAOY cells were grown in DMEM (Gibco) supplemented with 10% (v/v) FBS (Hyclone), 2 mM L-glutamine, 100 units/ml penicillin, 100 units/ml streptomycin, and […] amphotericin B (Invitrogen). HEK293FT and DAOY cells were transfected with either HA-FLAG-vector, FLAG-MAGE-A11 wild-type or SBC mutants using Effectene (QIAGEN) according to the manufacturer’s protocol in 6 cm^2 plates. After 48 h, cells were selected with 1 µg/ml puromycin (Sigma) over 2 weeks.
For western blotting, samples in SDS sample buffer were resolved on SDS-PAGE gels and then transferred to nitrocellulose membranes prior to blocking in TBST with 5% (w/v) milk powder or 3% (w/v) bovine serum albumin and probing with primary and secondary antibodies (GE Healthcare). Primary antibodies were: anti-Myc (Sigma, #C3956), anti-FLAG (Sigma, #F3165), anti-HUWE1 (Novus Biologicals, #NB 100-652), anti-PCF11 (Bethyl Laboratories, #A303-706A), anti-GAPDH (Cell Signaling Technology, #2118), anti-TRIM28 (Abcam, #ab22553), anti-AMPKα1 (Cell Signaling Technology, #2795), and anti-MMS19 (Proteintech, #16015-1-AP) and Tb-anti-GST (Invitrogen, #PV3551). Secondary antibodies were: Donkey Anti-Rabbit IgG (GE Healthcare, NA934V) and Sheep Anti-Mouse IgG (GE Healthcare, NA931V). […]

Caco-2 cells = test: High throughput Caco-2 permeability; type: in vitro ADME
Method: High throughput Caco-2 permeability was performed in the TranswellR 0.4 µm polycarbonate membrane 96-well system with modified methods. Caco-2 cells were maintained at 37 °C in a humidified incubator with an atmosphere of 5% CO2. The cells were cultured in 75 cm^2 flasks with Dulbecco’s Modified Eagle’s Medium (DMEM) containing 10% (v/v) FBS, 1% (v/v) non-essential amino acids (NEAA), 100 units/ml of penicillin, and 100 µg/ml of streptomycin. The Caco-2 cells were seeded onto inserts at a density of 2 × 10^4 cells/insert separately. The medium in the wells was exchanged each other day, and the trans epithelial electrical resistance (TEER) value was measured using an epithelial voltohm meter (Millipore, Billerica, Massachusetts). […] For transport experiments, each cultured monolayer on the 96-well plate was washed twice with a transport buffer (HBSS containing 25 mM HEPES, pH 7.4). The permeability assay was initiated by the addition of each compound solution (10 µmol/l) into inserts (apical side, A) or receivers (basolateral side, B). The Caco-2 cell monolayers were incubated for 2 h at 37 °C. Fractions were collected from receivers (if apical to basal permeability) or inserts (if basal to apical permeability), and concentrations were assessed by UPLC/MS (Waters; Milford, MA). All compounds were tested in triplicates. The A → B (or B → A) apparent permeability coefficients (Papp) of each compound were calculated using the equation, Papp = dQ/dt × 1/AC0, where dQ/dt equals the flux of a drug across the monolayer, A equals the total insert well surface area, and C0 is the initial concentration of substrate in the donor compartment. The efflux ratio was determined by dividing the Papp in the B-A direction by the Papp in the A-B direction.

SMILES | cell viability ([1]; DAOY cells with MAGE-A11 against vector control, 0–40 μM, 24 h, listed as SJ521054) | cytotoxicity independent of MAGE-A11 ([1]; higher concentrations, both cell lines (DAOY and HEK293)) | cell viability [2] | PCF11 protein levels / PCF11 degradation ([3]; HEK293FT cells stably expressing FLAG-MAGE-A11, 24 h, listed as SJ521054) | PCF11 protein levels ([3]; HEK293FT vector control cells, 24 h) | cell permeability in words (Caco-2 cells)
FC(F)(F)c1ccc2c(NCCCNCc3ccc4[nH]ccc4c3)ccnc2c1 [SJ000521054-02] | reduces viability of MAGE-A11 expressing DAOY cancer cells; also recorded: decreased the viability of MAGE-A11 expressing DAOY and HEK293FT cells to a much greater extent than vector control MAGE-A11-negative cells | shows cytotoxicity to both cell lines | reduces viability of; also recorded: decreased the viability of MAGE-A11 expressing DAOY and HEK293FT cells to a much greater extent than vector control MAGE-A11-negative cells | blocks PCF11 degradation by MAGE-A11; also recorded: stabilized PCF11 protein levels | had no effect | 
c1ccc2c(NCCCNCc3ccc4[nH]ccc4c3)ccnc2c1 [SJ001008066-01] |  |  |  |  |  | cell permeable
